The subject of this experiment is mouse microglia. As to the kind of experiment: IL-1β release from LPS-primed mouse microglia (ELISA). It counts as cell-based. The following applies: LPS-primed primary and immortalized mouse microglia, 10 μM. The protocol:
For primary cultures, bone marrow-derived macrophages and microglia were isolated as described^42,43 and cultured in DMEM supplemented with L-glutamine, ciprofloxacin (Cellgro, Manassas, Va.) and 10% fetal calf serum (Hyclone, Logan, Utah) Immortalized macrophage and microglial cell lines were generated using J2 recombinant retrovirus (carrying v-myc and v-raf oncogenes)^44,45. Briefly, primary bone marrow cells were incubated in L929 conditioned medium for 3-4 days to induce macrophage differentiation. Cells were then infected with J2 recombinant retrovirus and maintained in culture until cells were growing in the absence of conditioned medium. Similarly, primary mixed glial cultures were cultured until fully confluent. After two consecutive infections with J2 retrovirus, cells were maintained in normal medium until growth of microglial cells in colonies was observed. The semi-adherent colonies of microglial cells were washed off and cultured in new flasks. […] Microglial cell lines form wild type (C57/BL6), Caspase-1^−/− and IL-IR^−/− mice as well as macrophage cell lines from wild type (C57BL6), NALP3 -, IPAF- and ASC-deficient mice were generated and used for experiments as indicated.
Stimulations were carried out in serum free DMEM medium. Microglial cells and macrophages were primed with 100 U/ml IFNγ (Griess assay, TNF ELISA, real-time quantitative PCR) or 100 ng/ml ultrapure LPS (IL-1β ELISA, FLICA, ASC-CFP microglia cell line assay, Western blot) 1-3 h prior to stimulation with Aβ, revAβ, zymosan, ATP or transfection with dAdT.
Cell culture supernatants were assayed for IL-1β and TNFα using ELISA kits from R&D Systems (Minneapolis, Minn.) according to the manufacturer's instructions. Nitric oxide was measured by Griess reaction of nitrites accumulated in the supernatants using chemicals from Sigma.
Background: In an ELISA, binding on a coated surface is turned into a signal by an enzyme label.

Here are results for one substance from US20100150938A1, “METHODS AND COMPOSITIONS FOR REDUCING INFLAMMATION AND TREATING INFLAMMATORY DISORDERS” (UNIVERSITY OF MASSACHUSETTS, priority 2008, published 2010).

Regarding Aβ 1-42 peptide, the “IL-1β release into supernatants induced by the peptide” value was “time-dependent release of IL-1β”. The “IL-1β release into supernatants induced by the peptide” value (listed as fibrillar Aβ) is “early and pronounced IL-1β release”.
